Results from ChEMBL document CHEMBL1141168, “Studies toward the pharmacophore of salvinorin A, a potent kappa opioid receptor agonist” (J Med Chem, 2005).

How the values were obtained:
[1] = target: T1, Kappa-type opioid receptor (Rattus norvegicus, UniProt P34975); experiment: biochemical; type: cell-based, HEK293
Description: Inhibition of [3H]U-69593 binding to rat opioid receptor kappa 1 expressed in HEK 293 cells

[2] = species: Rattus norvegicus; experiment: Effective concentration of compound against intracellular calcium mobilization in rat; type: functional
[3] = species: Rattus norvegicus; experiment: Emax value against intracellular calcium mobilization in rat; type: functional
[4] = target: T1, Kappa-type opioid receptor; experiment: Inhibition of [3H]diprenorphine binding to rat opioid receptor kappa 1 expressed in HEK 293 cells; type: cell-based, HEK293

T1 sequence (P34975 whole entry): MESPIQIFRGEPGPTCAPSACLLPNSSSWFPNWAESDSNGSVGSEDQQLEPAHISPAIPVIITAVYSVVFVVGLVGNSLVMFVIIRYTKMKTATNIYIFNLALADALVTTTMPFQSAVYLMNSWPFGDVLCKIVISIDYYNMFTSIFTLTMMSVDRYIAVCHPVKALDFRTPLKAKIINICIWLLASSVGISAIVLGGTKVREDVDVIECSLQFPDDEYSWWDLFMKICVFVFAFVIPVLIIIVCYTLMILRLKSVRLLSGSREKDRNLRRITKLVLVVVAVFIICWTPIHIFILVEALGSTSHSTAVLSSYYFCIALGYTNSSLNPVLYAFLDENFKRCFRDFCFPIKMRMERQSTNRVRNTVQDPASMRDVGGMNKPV

| Structure (SMILES) | Ki [1] [nM] | EC50 [2] [nM] | Emax [3] [%] | Ki [4] [nM] |
| --- | --- | --- | --- | --- |
| COC(=O)C1=C[C@H](O)[C@H](OC(C)=O)[C@@H]2[C@@]3(C)C[C@@H](c4ccoc4)OC(=O)[C@@H]3CC[C@@]12C | > 10000 | – | – | – |
| COC(=O)[C@@H]1C[C@H](OC(C)=O)C(=O)[C@H]2[C@@]1(C)CCC1=CO[C@H](c3ccoc3)C[C@@]12C | 6 | 223 | 103 | – |
| COC(=O)C1=C[C@H](OC(C)=O)[C@H](O)[C@@H]2[C@@]3(C)C[C@@H](c4ccoc4)OC(=O)[C@@H]3CC[C@@]12C | – | – | – | > 10000 |
| COC(=O)[C@@H]1C[C@H](OC(C)=O)C(=O)[C@H]2[C@@]1(C)CC[C@H]1C(O)O[C@H](c3ccoc3)C[C@]21C (some centres undefined) | 59 | 78 | 107 | – |
| COC(=O)[C@@H]1C[C@H](OC(C)=O)[C@H](OC(C)=O)[C@H]2[C@@]1(C)CC[C@H]1C(=O)O[C@H](c3ccoc3)C[C@]21C | > 10000 | – | – | – |
| COC(=O)[C@@H]1C[C@H](OC(C)=O)C(=O)[C@H]2[C@@]1(C)CC[C@H]1C(=O)O[C@H](C3CCOC3)C[C@]21C (some centres undefined) | 156 | 126 | 108 | – |
| COC(=O)[C@@H]1C[C@H](OC(C)=O)C[C@H]2[C@@]1(C)CC[C@H]1C(=O)O[C@H](c3ccoc3)C[C@]21C | 18 | 141 | 122 | – |
| COC(=O)C1=C[C@H](OC(C)=O)[C@H](OC(C)=O)[C@@H]2[C@@]3(C)C[C@@H](c4ccoc4)OC(=O)[C@@H]3CC[C@@]12C | 1020 | – | – | – |
| COC(=O)[C@@H]1C[C@H](OC(C)=O)C(=O)[C@@H]2[C@@]3(C)C[C@@H](c4ccoc4)OC[C@@H]3CC[C@]21C | 6 | 223 | 103 | – |
| COC(=O)[C@@H]1C[C@H](OC=O)C(=O)[C@H]2[C@@]1(C)CC[C@H]1C(=O)O[C@H](c3ccoc3)C[C@]21C | 18 | 315 | 108 | – |
| CC(=O)O[C@H]1C[C@@H](CO)[C@]2(C)CC[C@H]3C(=O)O[C@H](c4ccoc4)C[C@]3(C)[C@H]2C1=O | 347 | > 10000 | – | – |
| COC(=O)[C@@H]1C[C@H](OC(C)=O)[C@H](O)[C@H]2[C@@]1(C)CC[C@H]1C(=O)O[C@H](c3ccoc3)C[C@]21C [1-ALPHA-HYDROXYSALVINORIN A] | 1130 | – | – | – |
| COC(=O)[C@@H]1C[C@H](OC(C)=O)C(=O)[C@@H]2[C@@]3(C)C[C@@H](c4ccoc4)OC(=O)[C@H]3CC[C@]21C [SALVINORIN A (ESTER)] | – | 244 | 78 | – |
| COC(=O)[C@@H]1C[C@H](OC(C)=O)C(=O)[C@H]2[C@@]1(C)CC[C@H]1C(=O)O[C@H](c3ccoc3)C[C@]21C [SALVINORIN A] | – | 46 | 100 | – |
